The target of this assay is T1, Gamma-aminobutyric acid receptor subunit alpha-2 (Homo sapiens, UniProt P18507+P47869+P47870).
T1 sequence (P47869 whole entry): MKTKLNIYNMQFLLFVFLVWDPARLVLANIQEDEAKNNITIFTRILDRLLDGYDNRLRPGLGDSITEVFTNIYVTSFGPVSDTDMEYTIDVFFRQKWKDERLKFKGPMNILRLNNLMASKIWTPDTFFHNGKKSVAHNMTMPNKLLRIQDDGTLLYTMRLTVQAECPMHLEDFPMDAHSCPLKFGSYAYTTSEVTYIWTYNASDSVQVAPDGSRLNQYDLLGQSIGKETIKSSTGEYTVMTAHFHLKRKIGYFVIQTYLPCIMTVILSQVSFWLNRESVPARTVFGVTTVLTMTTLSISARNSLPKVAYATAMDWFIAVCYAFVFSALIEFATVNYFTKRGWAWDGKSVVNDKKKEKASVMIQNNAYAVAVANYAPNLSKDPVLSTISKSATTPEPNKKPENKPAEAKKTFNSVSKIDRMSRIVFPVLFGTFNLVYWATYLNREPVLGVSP
The assay is described as follows: Binding Assay. As for the experimental part: 100 ul of radioligand and 100 ul of membrane in 50 mM Tris-HCl and 0.05% F127 with 1 ul of test compound was incubated for 2 hours to allow the reaction to achieve equilibrium, and then harvested onto filter plates, dried and counted on a TopCount NXT. The data was analysed, and the Ki values were presented as the geometric mean of at least two replicates.

The molecule `CCn1ncc2c(-c3ccc(F)c(-c4cc5c(cc4OC)C(=O)N(C)C5)c3)cnnc21` [US10538523, Example 3] showed a Ki of 11.8 nM.

The Ki is a dissociation constant, usually derived from enzyme kinetics or from competition with a known ligand.
